The test system of series [1] is E.G7 targets (lysis by CD8 T cells / CTLs). The experiment in a line: in vitro cytotoxicity of CTLs against OVA expressing E.G7 thymoma cells. Format: cell-based, mouse. To be noted: C57BL/6 CTLs; relative to Inh1; FIG. 12C. The text has this: FIG. 5A Illustrates that pharmacological inhibition of TCPTP and PTP1B results in enhanced cytotoxicity and effector differentiation. CD8 T cells from OT-1 mice were activated/expanded by αCD3/αCD28 antibodies and IL-2 in the presence of different concentrations of TCPTP/PTP1B inhibitor (Inh1) for 5 days. Specific cytotoxicity against OVA expressing E.G7 thymoma cells was measure.
FIG. 12C illustrates the specific cytotoxicity against OVA expressing E.G7 thymoma cells from 5-day C57BL/6 CTLs treated with Inh1 or Inh2 at the concentrations specified. (one of three experiments shown).
To understand the functional capabilities of the CD8 T cells with combined deficiency of TCPTP and PTP1B, the conditional mutant mice of Example 1 were bred with OT-1 transgenic mice. […] Effector CD8 T cells also contribute to the immune response by the secretion of cytokines as IFN-γ, consequently the presence of this cytokine in the supernatant of target cell stimulated CTLs by ELISA was measured. An increase of the secretion of IFN-γ was detected in TCPTP and PTP1B single deficient cells at low effector to target ratios which was more stepped in the […] cells (FIG. 3C). […]
As the differentiation state of CD8 T cells was altered in the various genotypes analyzed before, how treatment with Inh1 altered the expression of differentiation markers was determined by flow cytometric analysis (FIGS. 5D and 5E). […]

For series [2] the following is noted: mice; cited from earlier work.
For series [3] the following is noted: humans; phase 1 clinical studies; cited from earlier work.

Like-named read-outs stand apart in the source and are kept apart here.

Regarding `N#CCc1ccc2cc(Br)c(C(F)(F)P(=O)(O)O)cc2c1` [Inh2], the “concentration inducing similar biological activity to Inh1” value in series [1] amounted to 5 times lower. Further, the systemic tolerability entry in series [2] and in series [3] was “tolerated systemically” throughout.

The record behind these values is patent US20260315505A1, “COMBINED INHIBITION OF TYROSINE PHOSPHATASES TCPTP AND PTP1B AND PD-1 BLOCKAGE IMMUNOTHERAPY IN THE TREATMENT OF CANCER” (Kanyr Pharma Inc., priority 2022, published 2026).
